Test results reported in PubChem BioAssay AID2387 (Broad Institute, 2010).
Activity calls are given as the source filed them.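 How the source made its calls: active means fitted EC50 no more than tenfold above the highest tested concentration; inconclusive means flat fit with 30 to 70% signal loss, or poor fit; inactive means the rest.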

Test system: Candida albicans CaCi-2 growth (no fluconazole), Alamar Blue
Assay: C. albicans growth inhibition without fluconazole, dose response, counter-screen for fluconazole resistance reversal project, CaCi-2 strain, Alamar Blue fluorescence (AID 2387)
Details: C. albicans CaCi-2 (fluconazole-resistant clinical isolate) growth without fluconazole, 48 h

Row | Structure (SMILES) | EC50
1 | CC1(O)CC(c2ccc(Cl)cc2)=NN1C(=O)c1ccc([N+](=O)[O-])cc1 (configuration not stated) | > 16 µM (inactive)
2 | O=C(c1ccc(Cn2c(=S)[nH]c3ccccc3c2=O)cc1)N1CCN(c2ccccn2)CC1 | > 15 µM (inactive)
3 | O=C(/C(=N/N=C/c1ccc(O)c(O)c1O)c1ccccc1)c1ccccc1 | > 15 µM (inactive)
4 | CCc1ccccc1NC(=S)N=Nc1c(O)n(C)c2ccc(S(=O)(=O)N3CCOCC3)cc12 | > 15 µM (inactive)
5 | Cc1ccc(OCC(=O)NNC(=S)NC(=O)C2CC2)c(C)c1 | > 15 µM (inactive)
6 | O=C(NCc1ccco1)c1sc(=S)n2c1[nH]c(=O)c1ccccc12 | > 16 µM (inactive)
7 | CCCC(=O)NC(c1ccco1)c1cc([N+](=O)[O-])c2cccnc2c1O (configuration not stated) | > 15 µM (inactive)
8 | C(=C\c1ccccc1)/CN1CCN(c2ncnc3c2oc2ccccc23)CC1 | > 16 µM (inactive)
9 | CCCC(=O)NC(c1ccc(Cl)cc1)c1ccc2cccnc2c1O (configuration not stated) | 16.1 µM
10 | CCC(=O)NC(c1ccc(OC)cc1)c1cc(Cl)c2cccnc2c1O (configuration not stated) | > 16 µM (inactive)
11 | O=C(Nc1nc(-c2ccccn2)cs1)c1ccc(Br)s1 | 10.2 µM
12 | O=C(c1cc2c(s1)CCCCC2)N1CCN(c2ncccn2)CC1 | > 16 µM (inactive)
13 | O=C(NNC(=S)NC(=O)c1ccc(Br)cc1)c1ccc([N+](=O)[O-])cc1 | > 16 µM (inactive)
14 | CC(C)n1cc(/C=C/c2cc[n+](C)cc2)c2ccccc21 | > 15 µM (inactive)
15 | CCc1cc(C(=O)NNC(=S)Nc2cc(C)ccc2C)cs1 | > 15 µM (inactive)
16 | O=C(Nc1nnc(C2COc3ccccc3O2)o1)c1ccc(F)cc1 (configuration not stated) | > 15 µM (inactive)
17 | O=C(NNC1=C(C(=O)C(F)(F)F)CCC1)c1cccc(Cl)c1 | > 16 µM (inactive)
18 | COc1ccc(CCNc2ncnc3sc(C)cc23)cc1OC | > 15 µM (inactive)
19 | CCN(CC)c1ccc2cc(S(=O)(=O)c3ccc(C)cc3)c(=O)oc2c1 | > 16 µM (inactive)
20 | Cc1cc(C)n(-c2nc3ccccc3c(=O)n2OCC#N)n1 | 11.2 µM
21 | COc1ccc(OC)c(/C=C2\SC(=S)N(NS(=O)(=O)c3ccc(C)cc3)C2=O)c1 | > 15 µM (inactive)
22 | O=C(Nc1nnc(-c2ccc3c(c2)CCCC3)o1)c1ccccc1 | 9.67 µM
23 | Cc1cc2ccccn2c1C(C[N+](=O)[O-])c1c(F)cccc1Cl (configuration not stated) | 2.82 µM
24 | Cc1cc(C(=O)Nc2sc3c(c2C#N)CCCC3)no1 | > 16 µM (inactive)
25 | O=C1NC(=O)/C(=C\c2ccc(Br)o2)S1 | > 15 µM (inactive)
26 | CCCCC(=O)NC(c1ccccc1)c1ccc2cccnc2c1O (configuration not stated) | > 15 µM (inactive)

Row | Structure (SMILES) | EC50
27 | CC1CCN(Cc2c(C(=O)N/N=C/c3cc(Cl)ccc3O)nnn2-c2nonc2N)CC1 | > 15 µM (inactive)
28 | COC(=O)c1ccc(COc2ccc(/C=C(\C#N)c3nc4ccccc4[nH]3)cc2OC)o1 | > 16 µM (inactive)
29 | CCN1/C(=C/C=C/c2oc3ccc(-c4ccccc4)cc3[n+]2CC)Oc2ccc(-c3ccccc3)cc21 | 6.54 µM
30 | Oc1c(C(c2ccc(Cl)cc2)N2CCCC2)cc(Cl)c2cccnc12 (configuration not stated) | 3.15 µM
31 | CCc1cc(C(=O)NC2CCCc3c2cnn3-c2cccc(C)c2C)n(C)n1 (configuration not stated) | > 15 µM (inactive)
32 | O=C(Oc1c(Cl)cc(Cl)c2cccnc12)c1ccco1 | 1.17 µM
33 | Cc1ccc(Nc2nc(N)c([N+](=O)[O-])c(N3CCC(C)CC3)n2)cc1C | > 15 µM (inactive)
34 | Oc1c(CN2CCc3ccccc3C2)cc(Cl)c2cccnc12 | 4.84 µM
35 | O=c1[nH]c(-c2ccccn2)nc(C(F)(F)F)c1Br | > 15 µM (inactive)
36 | COc1ccc2c(c1)/C(=C/c1cnc[nH]1)C(=O)N2 | > 16 µM (inactive)
37 | COc1ccc(-n2nc(C(=O)NCC(=O)N3CCN(c4ccccc4)CC3)c3ccccc3c2=O)c(OC)c1 | > 16 µM (inactive)
38 | COc1ccc(C(c2c(O)ccc3ccccc23)N2CCOCC2)c(OC)c1 (configuration not stated) | > 16 µM (inactive)
39 | N/C(Cc1ccc(Cl)c(Cl)c1)=N\OC(=O)c1cccs1 | > 16 µM (inactive)
40 | CCCC(=O)NC(c1cccs1)c1cc(Cl)c2cccnc2c1O (configuration not stated) | 12 µM
41 | O=C(c1cc(-c2ccccc2)n[nH]1)N1CCc2c([nH]c3ccccc23)C1c1ccccn1 (configuration not stated) | > 16 µM (inactive)
42 | O=[N+]([O-])c1ccc(O)c(/C=N/Nc2ccc(Cl)nn2)c1 | 9.85 µM
43 | Cc1ccc(NC(=O)c2sc3nc(N)c(C#N)cc3c2N)cc1 | > 15 µM (inactive)
44 | Cc1cccc(C(=O)CC(=O)c2cc(Cl)ccc2O)c1 | > 15 µM (inactive)
45 | N/C(Cc1ccccc1)=N\OC(=O)c1cccc2ccccc12 | > 15 µM (inactive)
46 | Cc1c(O)c2c3c(cccc3c1O)C(=O)N(c1ccccc1)C2=O | > 15 µM (inactive)
47 | COc1ccc(-n2c(-c3cccc(C)c3[N+](=O)[O-])n[nH]c2=S)cc1 | > 15 µM (inactive)
48 | O=C(Nc1nnc(-c2ccc3c(c2)CCCC3)o1)c1ccc(Cl)cc1Cl | 14.5 µM
49 | CCC(C)c1ccc(O)c(NC(=S)NC(=O)c2cccnc2)c1 (configuration not stated) | > 15 µM (inactive)
50 | O=C(Nc1sc2c(c1C(=O)c1ccc(Cl)cc1)CCCC2)c1cccnc1 | > 15 µM (inactive)
51 | CCOC(=O)c1c(NC(=S)NCC2CCCO2)sc(C)c1C (configuration not stated) | > 16 µM (inactive)
52 | CCCC(=O)NC(c1ccccc1)c1ccc2cccnc2c1O (configuration not stated) | > 16 µM (inactive)

Row | Structure (SMILES) | EC50
53 | CCc1cc(=S)n2c([nH]c3ccccc32)c1C#N | > 15 µM (inactive)
54 | CCNc1nc(N)nc(-c2cc(Cl)ccc2O)n1 | > 15 µM (inactive)
55 | CCNC(=S)NNC(=O)c1cc(-c2cc(C)ccc2C)nc2ccccc12 | > 15 µM (inactive)
56 | Cc1ccc(C)c(S(=O)(=O)N2CCN(Cc3ccc(O)c4ncccc34)CC2)c1 | > 16 µM (inactive)
57 | O=C(Nc1nnc(CCc2ccccc2)s1)c1ccco1 | > 15 µM (inactive)
58 | COc1cccc(/C=N/NC(=O)c2c(C)nc3ccc(Br)cn23)c1O | > 16 µM (inactive)
59 | COc1ccc(C(NC(=O)C(C)C)c2ccc3cccnc3c2O)cc1 (configuration not stated) | > 15 µM (inactive)
60 | O=C(Nc1cccc(-c2cn3ccccc3n2)c1)c1cccc(Cl)c1 | > 16 µM (inactive)
61 | Oc1ccc2ccccc2c1/C=N/Nc1nnc(-c2ncc[nH]2)c2ccccc12 | > 15 µM (inactive)
62 | Cc1ccc(C(=O)c2coc3c2C(=O)C(=O)c2ccccc2-3)cc1 | 10.7 µM
63 | CC1CCN(Cc2c(C(=O)N/N=C/c3cc(Br)ccc3O)nnn2-c2nonc2N)CC1 | > 16 µM (inactive)
64 | COc1ccc(-n2c(=O)c3c4c(sc3n3c(=S)[nH]nc23)CCCC4)cc1 | > 16 µM (inactive)
65 | COc1ccc(-c2nnc(NC(=O)c3ccc(F)cc3)o2)cc1 | > 15 µM (inactive)
66 | O=C(NNC1=C(C(=O)C(F)(F)F)CCC1)c1ccc(Br)cc1 | > 15 µM (inactive)
67 | COc1cccc(N=Nc2ccc3cccnc3c2O)c1 | 1.05 µM
68 | Cc1ccnc(Sc2ccc([N+](=O)[O-])cc2[N+](=O)[O-])n1 | > 15 µM (inactive)
69 | CCC(C)n1cnc2c(c1=O)c1nc3ccccc3nc1n2Cc1ccc(OC)cc1 (configuration not stated) | > 16 µM (inactive)
70 | COc1ccc(C2c3ccc4ccccc4c3Oc3ncn(CCN4CCOCC4)c(=N)c32)cc1 (configuration not stated) | > 16 µM (inactive)
71 | O=C(Nc1nnc(-c2ccc(F)cc2)o1)c1cccc([N+](=O)[O-])c1 | > 15 µM (inactive)
72 | COc1ccc(C2C(C#N)=C(N)Oc3c2ccc2cccnc32)cc1OC (configuration not stated) | > 15 µM (inactive)
73 | CC(=O)N(O)CCCCCNC(=O)CCC(=O)N(O)CCCCCNC(=O)CCC(=O)N(O)CCCCCN | > 15 µM (inactive)
74 | O=C(Cc1nc2ccccc2s1)c1ccc(O)cc1O | > 16 µM (inactive)
75 | CCCC(=O)NC(c1ccc(C)cc1)c1ccc2cccnc2c1O (configuration not stated) | > 15 µM (inactive)
76 | Nc1nonc1-n1nnc(C(=O)N/N=C/c2cc(Br)ccc2O)c1CNc1ccccc1 | > 16 µM (inactive)
77 | Cc1ccc(-c2nc3c(Cl)cc(Cl)cc3c(=O)n2O)cc1 | 11.5 µM
78 | CCCCCCOC(=O)C[N+](C)(C)CCOC1CC2CCC1(C)C2(C)C (configuration not stated) | > 16 µM (inactive)

Row | Structure (SMILES) | EC50
79 | COc1ccc(C(=O)NC(=S)NNC(=O)c2ccc(C)cc2)cc1 | > 15 µM (inactive)
80 | CCCC(=O)NC(c1ccc(C(C)C)cc1)c1ccc2cccnc2c1O (configuration not stated) | 11.1 µM
81 | CC(C)(C)c1ccc(OCCCC(=O)NNC(=O)c2ccccc2O)cc1 | > 16 µM (inactive)
82 | C(C#CCCCCCCCCC[n+]1ccccc1)#CCCCCCCCCC[n+]1ccccc1 | 2.52 µM
83 | CCCC(=O)NC(c1ccc(OC)cc1)c1ccc2cccnc2c1O (configuration not stated) | > 16 µM (inactive)
84 | Cc1nn(-c2ccccc2)c(C)c1C(=O)OC/C(O)=C(\C#N)c1nc2ccccc2[nH]1 | > 15 µM (inactive)
85 | CCOc1ccc(NC(=S)NNC(=O)c2ccc(Br)cc2)cc1 | > 16 µM (inactive)
86 | Cc1ccc(-n2c(O)c(C=Nc3ccccc3-c3n[nH]c(=S)[nH]c3=O)c3ccccc3c2=O)cc1C | > 16 µM (inactive)
87 | Cc1cc(O)ccc1NC(=S)NC(=O)c1cncc(Br)c1 | > 16 µM (inactive)
88 | O=Cc1ccc(O)c2ncccc12 | 6.24 µM
89 | COc1cccc(COc2cc3ccccc3nc2C)c1 | > 16 µM (inactive)
90 | COC(=O)Cn1nc(-c2ccccc2)c2ccccc21 | > 15 µM (inactive)
91 | CC(=O)O/N=C/c1c(N2CCOCC2)n(C)c2ccccc12 | > 16 µM (inactive)
92 | CCNC(=S)NNC(=O)c1cc(-c2ccccc2C)nc2ccccc12 | > 16 µM (inactive)
93 | O=C1CS/C(=N\C(=O)N2c3ccccc3Sc3ccccc32)N1 | > 15 µM (inactive)
94 | NC(=O)c1c(NC(=O)c2ccco2)sc2c1CCC2 | > 15 µM (inactive)
95 | Clc1ccc(CONc2ncnc3nonc23)c(Cl)c1 | > 16 µM (inactive)
96 | C[C@@H]1C[C@@H]2O[C@H]2/C=C\C=C\C(=O)Cc2c(Cl)c(O)cc(O)c2C(=O)O1 | > 16 µM (inactive)
97 | c1ccc2c(c1)CCN(c1ncnc3c1[nH]c1ccccc13)C2 | > 15 µM (inactive)
98 | C=CCc1c(C)c(C#N)c2nc3ccccc3n2c1NCCN(C)C | > 15 µM (inactive)
99 | COc1cc2c(cc1NC(=O)c1ccco1)CCCC2 | > 15 µM (inactive)
100 | COc1ccc(C)cc1N=Nc1ccc(O)c2ncccc12 | 2.77 µM
101 | CCN1/C(=C/C(C)=C/c2sc3ccccc3[n+]2CC)Sc2ccccc21 | 2.38 µM
102 | Cc1ccc(/C=C/C(=O)c2ccccc(=O)c2O)cc1C | 13 µM
